# Target: T1, C-C chemokine receptor type 3 (Homo sapiens, UniProt P51677)
# T1 sequence (P51677 whole entry): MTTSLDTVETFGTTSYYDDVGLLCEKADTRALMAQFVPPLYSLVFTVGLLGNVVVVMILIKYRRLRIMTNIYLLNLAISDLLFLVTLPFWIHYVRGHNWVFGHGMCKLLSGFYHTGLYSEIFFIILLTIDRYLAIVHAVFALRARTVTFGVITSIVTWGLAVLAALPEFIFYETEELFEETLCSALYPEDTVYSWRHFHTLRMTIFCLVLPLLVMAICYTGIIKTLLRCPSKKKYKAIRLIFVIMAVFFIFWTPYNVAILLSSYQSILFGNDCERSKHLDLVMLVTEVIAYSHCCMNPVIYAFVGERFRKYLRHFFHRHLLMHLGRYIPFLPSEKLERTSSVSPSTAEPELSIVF
# Assay: Antagonist activity at CCR3 expressed in B300-19 cells assessed as inhibition of eotaxin-induced calcium influx
# Assay type: functional, cell-based
row,SMILES,IC50 [nM]
1,CC1(NC(=O)c2ccccc2-c2ccccc2)CCN(Cc2ccc3cc(F)ccc3c2)CC1,2800
2,O=C(NC1CCN(Cc2ccc3cc(F)ccc3c2)CC1)c1ccccc1,1300
3,O=C(NC1CCN(Cc2ccc3cc(F)ccc3c2)CC1)c1ccccc1F,2900
4,O=C(Nc1ccccc1)C1CCN(Cc2ccc3cc(F)ccc3c2)CC1,1700
5,O=C(Nc1ccccc1)OC1CCN(Cc2ccc3cc(F)ccc3c2)CC1,4800
6,COc1ccc(C(=O)NC2CCN(Cc3ccc4cc(F)ccc4c3)CC2)cc1,2400
7,COc1cccc(C(=O)NC2CCN(Cc3ccc4cc(F)ccc4c3)CC2)c1,3500
8,O=C(NC1CCN(C/C=C/c2ccc(F)cc2)CC1)c1ccccc1,3400

# Second part, the molecule after the results:
row,IC50 [nM],SMILES
1,720,COc1ccccc1C(=O)NC1CCN(Cc2ccc3cc(F)ccc3c2)CC1
2,95,O=C(NC1CCN(Cc2ccc3cc(F)ccc3c2)CC1)c1ccccc1Oc1ccccc1
3,670,O=C(NC1CCN(Cc2ccc3cc(F)ccc3c2)CC1)c1cccc(F)c1
4,600,Fc1ccc2cc(CN3CCC(NCc4ccccc4)CC3)ccc2c1
5,810,CN(C(=O)c1ccccc1)C1CCN(Cc2ccc3cc(F)ccc3c2)CC1
6,1100,O=C(NC1CCN(Cc2ccc3cc(F)ccc3c2)CC1)c1cccc(Oc2ccccc2)c1
7,830,O=S(=O)(NC1CCN(Cc2ccc3cc(F)ccc3c2)CC1)c1ccccc1

# Target: T2, C-C chemokine receptor type 3 (Homo sapiens) (UniProt P51677)
# T2 sequence (whole entry): T1 sequence (P51677 whole entry)
# Assay: Antagonist activity at CCR3 expressed in B300-19 cells assessed as inhibition of eotaxin-induced calcium influx at 10 uM
# Assay type: functional, cell-based
row,inhibition [%],SMILES
1,40,O=C(NC1CCN(Cc2ccc3cc(F)ccc3c2)CC1)c1ccc(Oc2ccccc2)cc1
2,27,O=C(NC1CCN(Cc2ccc3cc(F)ccc3c2)CC1)c1ccc(-c2ccccc2)cc1
3,31,O=C(Nc1ccccc1)NC1CCN(Cc2ccc3cc(F)ccc3c2)CC1

# Target: T3, C-C chemokine receptor type 1 (Homo sapiens) (UniProt P32246)
# T3 sequence (whole entry): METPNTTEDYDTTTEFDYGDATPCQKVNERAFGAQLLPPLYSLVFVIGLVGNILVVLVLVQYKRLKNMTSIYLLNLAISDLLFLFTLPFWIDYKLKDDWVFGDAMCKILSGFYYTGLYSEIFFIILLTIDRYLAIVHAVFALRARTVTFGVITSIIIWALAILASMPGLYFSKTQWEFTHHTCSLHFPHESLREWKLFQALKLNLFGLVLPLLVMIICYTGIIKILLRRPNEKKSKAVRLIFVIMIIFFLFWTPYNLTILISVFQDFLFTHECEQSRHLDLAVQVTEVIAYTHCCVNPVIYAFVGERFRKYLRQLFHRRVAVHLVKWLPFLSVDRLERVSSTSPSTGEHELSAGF
# Assay: Inhibition of CCR1 at 10 uM
row,inhibition [%],SMILES
1,40,O=C(NC1C[C@@H]2CC[C@@H](C1)N2Cc1ccc2cc(F)ccc2c1)c1ccccc1-c1ccccc1 (relative stereo; 31)

# — ChEMBL document CHEMBL1143888, “Synthesis and structure-activity relationships of N-{1-[(6-fluoro-2-naphthyl)methyl]piperidin-4-yl}benzamide derivatives as novel CCR3 antagonists” (Bioorg Med Chem, 2008)
